Experimental data taken from PMC4838876, “Multivalent display of minimal Clostridium difficile glycan epitopes mimics antigenic properties of larger glycans” (Nature Communications, 2016).

System: mAb 2C5
Assay: Interaction Map (IM) analysis based on SPR traces
Assay type: binding, mouse
Text: Pentasaccharide 1 was bound with about 100-fold lower KD values than the minimal glycan epitope 3. This stronger binding may have been due to avidity (re-binding) effects, as 3 is contained twice in 1, or by higher affinity. To address this question, we compared the binding properties by IM analysis based on SPR traces. […] Both antigens interacted with mAb 2C5 in a 1:1-like manner, indicated by one dominant peak in the IM plots. Therefore, stronger antibody binding to 1 was due to increased affinity, not avidity, which would be characterized by differences in off-rates and additional peaks.
Figure 7 IM and thermodynamic analysis of glycan–mAb interactions and conformation of 1. (a) IM analysis. The heat maps represent on- and off-rates of mAb 2C5 to 1 (upper) and 3 (lower). (b) Thermograms acquired using 7 μM of mAb 2C5 and titrating 250 μM of 1 (left) or 3 mM of 3 (right) at 25 °C. Thermodynamic parameters were inferred by nonlinear least-square fits of the data points. (c) Summary of thermodynamic parameters for 1 and 3 interacting with mAbs 2C5 and 10A1. Bars represent mean±s.e.m. of two independent measurements. See Supplementary Fig. 6 for details. (d) One-dimensional proton NMR spectrum, and 2D zTOCSY and NOE spectroscopy (NOESY) NMR spectra of 1 showing the coupled protons to the anomeric protons of the five residues with numbering according to the structure shown in e. […]

SMILES	on-rate
C[C@@H]1O[C@@H](O[C@@H]2[C@@H](O)[C@H](OCCCCCN)O[C@H](CO)[C@H]2O)[C@H](O)[C@H](O)[C@H]1O [Compound 3, Rha-(1→3)-Glc]	250 M⁻¹ s⁻¹
C[C@@H]1O[C@@H](O[C@@H]2[C@@H](O)[C@H](O[C@H]3[C@H](O[C@@H]4O[C@@H](C)[C@H](O)[C@@H](O)[C@H]4O)[C@@H](O)[C@@H](O[C@H]4[C@@H](OCCCCCN)O[C@H](CO)[C@@H](O)[C@@H]4O)O[C@@H]3CO)O[C@H](CO)[C@H]2O)[C@H](O)[C@H](O)[C@H]1O [Compound 1]	126,000 M^−1 s^−1
